Assay [1] deals with RPMI-8226. The assay can be described thus: Cellular RPMI-8226 viability assay (CellTiter-Glo, 72 hours). The format is cell-based. The note with it: Homo sapiens. The essentials: (§1)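 Luminescent ATP read-out (CellTiter-Glo) after 72 h compound exposure at 37 °C/5% CO2; duplicate wells; vehicle control DMSO <0.1% final; seeding density set per cell line.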
In general terms: ATP-based viability assays read luminescence as a measure of living cells.

The target of assay [2] is T1, CDK2/Cyclin A (Homo sapiens, UniProt P24941).
T1 construct: purchased Invitrogen PV6290
As to the kind of experiment: Enzymatic assay for CDK2 (FRET based LANCE Ultra kinase assay). The assay is classed as biochemical. To be noted: read-out: CDK2 enzymatic activity (IC50 range). The essentials: (§2)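 LANCE Ultra TR-FRET: ULight-MBP peptide (68 nM) with ATP at Km, […], 60 min at 23° C. EDTA plus Eu-anti-phospho-MBP added, another 60 min, then 665/615 nm emission read. Compounds tested as 8-dose 4-fold DMSO dilutions.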
(Time-resolved FRET reads energy transfer from a long-lived donor to a nearby acceptor.)

The target in assay [3] is T2, CDK5/p25 (Homo sapiens, UniProt Q00535).
T2 construct: purchased Invitrogen PR8543B
T2 sequence (Q00535 whole entry): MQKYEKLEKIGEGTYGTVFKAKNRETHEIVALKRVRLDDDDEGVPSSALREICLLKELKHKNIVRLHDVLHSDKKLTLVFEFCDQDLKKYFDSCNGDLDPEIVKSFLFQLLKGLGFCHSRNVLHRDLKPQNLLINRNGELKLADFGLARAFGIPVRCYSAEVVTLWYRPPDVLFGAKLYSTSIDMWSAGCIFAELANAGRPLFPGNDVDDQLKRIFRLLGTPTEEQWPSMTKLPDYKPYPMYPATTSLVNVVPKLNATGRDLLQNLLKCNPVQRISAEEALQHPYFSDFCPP
T2 sequence (Q15078 99-307 partner limits assumed): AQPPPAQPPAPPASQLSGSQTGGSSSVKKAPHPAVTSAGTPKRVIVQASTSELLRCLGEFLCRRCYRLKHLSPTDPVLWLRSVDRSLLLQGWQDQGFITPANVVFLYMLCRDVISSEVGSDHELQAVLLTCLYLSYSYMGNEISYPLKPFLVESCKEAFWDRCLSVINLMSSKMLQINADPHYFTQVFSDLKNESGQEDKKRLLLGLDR
As to the kind of experiment: Enzymatic assay for CDK5 (FRET based LANCE Ultra kinase assay). The format is biochemical. The note with it: read-out: CDK5 enzymatic activity (IC50 range). The essentials: as §2

Assay [4] has as its target T3, CDK7/Cyclin H/MNAT1 (Homo sapiens, UniProt P50613).
T3 construct: purchased Invitrogen PR6749B
As to the kind of experiment: Enzymatic assay for CDK7 (FRET based LANCE Ultra kinase assay). The format is biochemical. In short, it runs like this:
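Inhibition was measured at Km ATP by time-resolved FRET between a Eu anti-phospho antibody and a phosphorylated ULight peptide. The enzyme was the purified CDK7/cyclin complex, and data were curve-fitted.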

Assay [5] deals with H460. As to the kind of experiment: Cellular H460 viability assay (CellTiter-Glo, 72 hours). The assay is classed as cell-based. The note with it: Homo sapiens, NCI-H460. The essentials: as §1
The test system of assay [6] is MV4-11. The assay can be described thus: Cellular MV4-11 viability assay (CellTiter-Glo, 72 hours). The format is cell-based. The note with it: Homo sapiens. In short, it runs like this: as §1
In assay [7] the target is T4, CDK1/Cyclin B (Homo sapiens, UniProt P06493).
T4 construct: purchased Invitrogen PR4768C
T4 sequence (P06493 whole entry): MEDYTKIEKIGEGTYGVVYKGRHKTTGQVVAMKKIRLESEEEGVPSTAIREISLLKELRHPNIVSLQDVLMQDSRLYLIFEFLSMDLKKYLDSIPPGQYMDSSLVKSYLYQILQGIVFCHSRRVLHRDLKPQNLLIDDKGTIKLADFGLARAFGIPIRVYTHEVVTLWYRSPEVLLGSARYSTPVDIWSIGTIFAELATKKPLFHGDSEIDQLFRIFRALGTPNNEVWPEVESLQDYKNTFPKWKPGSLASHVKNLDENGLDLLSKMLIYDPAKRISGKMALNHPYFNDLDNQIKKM
T4 sequence (P14635 whole entry partner): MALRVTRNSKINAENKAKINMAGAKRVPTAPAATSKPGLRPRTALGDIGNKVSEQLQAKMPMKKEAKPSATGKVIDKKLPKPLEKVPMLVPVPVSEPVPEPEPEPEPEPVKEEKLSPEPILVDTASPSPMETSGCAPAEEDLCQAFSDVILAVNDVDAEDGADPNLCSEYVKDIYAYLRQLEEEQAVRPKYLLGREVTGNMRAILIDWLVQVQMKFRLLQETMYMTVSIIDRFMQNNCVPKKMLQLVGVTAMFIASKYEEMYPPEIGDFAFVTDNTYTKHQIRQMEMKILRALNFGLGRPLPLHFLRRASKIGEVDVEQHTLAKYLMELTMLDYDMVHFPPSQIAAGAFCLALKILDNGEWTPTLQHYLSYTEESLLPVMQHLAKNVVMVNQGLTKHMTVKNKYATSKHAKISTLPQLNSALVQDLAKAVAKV
As to the kind of experiment: Enzymatic assay for CDK1 (FRET based LANCE Ultra kinase assay). The assay is classed as biochemical. The note with it: read-out: CDK1 enzymatic activity (IC50 range). In short, it runs like this:
as §2

Assay [8] deals with HCT116. As to the kind of experiment: Cellular HCT116 viability assay (CellTiter-Glo, 72 hours). The assay is classed as cell-based. The note with it: Homo sapiens, HCT-116. In short, it runs like this:
as §1

In assay [9] the test system is MOLT-4. The assay can be described thus: Cellular MOLT-4 viability assay (CellTiter-Glo, 72 hours). The assay is classed as cell-based. To be noted: Homo sapiens, MOLT4 viability assay. In short, it runs like this: as §1
[10] abbreviates: read-out: CDK7 enzymatic activity (IC50 range).

Where two headings read alike, the source gives them in different places.

T3 sequence (P50613 whole entry): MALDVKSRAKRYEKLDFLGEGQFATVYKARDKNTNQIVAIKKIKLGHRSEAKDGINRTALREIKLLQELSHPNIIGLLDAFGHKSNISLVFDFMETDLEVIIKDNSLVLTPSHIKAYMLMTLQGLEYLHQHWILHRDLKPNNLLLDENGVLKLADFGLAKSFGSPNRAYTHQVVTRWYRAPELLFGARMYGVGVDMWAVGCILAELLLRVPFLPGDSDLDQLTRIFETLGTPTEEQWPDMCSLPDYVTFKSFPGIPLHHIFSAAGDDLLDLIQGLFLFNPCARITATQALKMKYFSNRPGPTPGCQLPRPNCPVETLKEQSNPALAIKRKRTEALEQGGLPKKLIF
T3 sequence (P51946 whole entry partner): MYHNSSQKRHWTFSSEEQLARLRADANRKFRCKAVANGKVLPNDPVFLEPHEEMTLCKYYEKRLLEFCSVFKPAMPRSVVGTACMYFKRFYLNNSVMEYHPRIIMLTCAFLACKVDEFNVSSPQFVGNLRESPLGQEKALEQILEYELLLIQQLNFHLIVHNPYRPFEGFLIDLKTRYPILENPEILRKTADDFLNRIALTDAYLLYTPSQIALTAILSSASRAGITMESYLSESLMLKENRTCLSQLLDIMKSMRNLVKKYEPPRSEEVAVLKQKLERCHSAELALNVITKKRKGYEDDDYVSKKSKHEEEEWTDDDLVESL
T3 sequence (P51948 whole entry partner): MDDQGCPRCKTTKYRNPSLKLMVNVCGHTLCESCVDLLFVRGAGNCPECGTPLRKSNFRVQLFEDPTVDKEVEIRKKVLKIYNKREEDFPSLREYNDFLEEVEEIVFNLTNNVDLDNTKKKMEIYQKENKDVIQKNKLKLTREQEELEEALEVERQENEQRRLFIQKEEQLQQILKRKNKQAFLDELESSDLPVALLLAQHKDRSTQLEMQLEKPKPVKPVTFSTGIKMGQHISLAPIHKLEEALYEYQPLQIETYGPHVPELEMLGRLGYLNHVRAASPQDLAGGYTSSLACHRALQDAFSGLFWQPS

`CC(=O)Nc1ccc2[nH]c(-c3ccccc3CNc3nc(N4CCC(N)CC4)nc4c(C(C)C)cnn34)cc2c1` [Compound 116]: the IC50 is less than 1 µM in assay [1]; less than 0.1 µM in assay [2]; less than 0.1 µM in assay [3]; less than 0.1 µM in assay [4] (setting [10]); less than 1 µM in [5]; less than 1 µM in [6]. Further, the IC50 in [7] was 0.1 to 1 µM; in assay [8], less than 1 µM; in assay [9], less than 1 µM. In addition, the “CDK1/CDK7: Selectivity of CDK7 inhibition over CDK1 inhibition” value in assay [4] is reported as “B (B=less than 200 fold, but greater than 20 fold)”. Besides, the “CDK2/CDK7: Selectivity of CDK7 inhibition over CDK2 inhibition” value in [4] is given as “B (B=less than 200 fold, but greater than 20 fold)”. Also, in assay [4], the “CDK5/CDK7: Selectivity of CDK7 inhibition over CDK5 inhibition” value is given as “C (C=less than 20 fold)”.
As for `CC(C)c1cnn2c(NCc3ccccc3-c3nc4ccccc4[nH]3)nc(N3CCC(N)CC3)nc12` [Compound 98], the half-maximal inhibitory concentration (IC50) in assay [1] is less than 1 µM; in [2] it was 0.1 to 1 µM; in [3], less than 0.1 µM; in [4] (setting [10]) it was less than 0.1 µM; in [5], less than 1 µM; in [6], less than 1 µM. Further, the IC50 is 0.1 to 1 µM in [7], less than 1 µM in assay [8] and less than 1 µM in assay [9]. For the same compound, in [4], the “CDK1/CDK7: Selectivity of CDK7 inhibition over CDK1 inhibition” value is “A (A=greater than 200 fold)”. The “CDK2/CDK7: Selectivity of CDK7 inhibition over CDK2 inhibition” value in assay [4] was “B (B=less than 200 fold, but greater than 20 fold)”. Besides, the “CDK5/CDK7: Selectivity of CDK7 inhibition over CDK5 inhibition” value in assay [4] is reported as “B (B=less than 200 fold, but greater than 20 fold)”.
On to `CC(C)c1cnn2c(NCc3ccccc3-n3ccc(-c4ccccc4)n3)nc(N3CCC(N)CC3)nc12` [Compound 99], for which the IC50 in assay [1] was 1 to 10 µM; in assay [2], more than 1 µM; in [3], 0.1 to 1 µM; in [4], less than 0.1 µM; in assay [5] it was less than 1 µM; in assay [6] it was less than 1 µM. Further, the IC50 in assay [7] was more than 1 µM; in [8] it was less than 1 µM; in assay [9], 1 to 10 µM. Also, in [4], the “CDK1/CDK7: Selectivity of CDK7 inhibition over CDK1 inhibition” value is “A (A=greater than 200 fold)”. Also, the “CDK2/CDK7: Selectivity of CDK7 inhibition over CDK2 inhibition” value in assay [4] is listed as “A (A=greater than 200 fold)”. In assay [4], the “CDK5/CDK7: Selectivity of CDK7 inhibition over CDK5 inhibition” value is “B (B=less than 200 fold, but greater than 20 fold)”.
In the case of `NC1CCN(c2nc(NCc3ccccc3-n3cccn3)n3ncc(Br)c3n2)CC1` [Compound 18], the IC50 in assay [1] is less than 1 µM; in assay [2], 0.1 to 1 µM; in [3], less than 0.1 µM; in [4] (setting [10]), less than 0.1 µM; in assay [5] it was less than 1 µM; in [6] it was less than 1 µM. Besides, the IC50 in assay [7] was 0.1 to 1 µM; in assay [8] it was less than 1 µM; in [9] it was 1 to 10 µM. Moreover, in assay [4], the “CDK1/CDK7: Selectivity of CDK7 inhibition over CDK1 inhibition” value is recorded as “B (B=less than 200 fold, but greater than 20 fold)”. Besides, in [4], the “CDK2/CDK7: Selectivity of CDK7 inhibition over CDK2 inhibition” value was “B (B=less than 200 fold, but greater than 20 fold)”. Besides, the “CDK5/CDK7: Selectivity of CDK7 inhibition over CDK5 inhibition” value in assay [4] is “C (C=less than 20 fold)”.
Consider `CC(C)c1cnn2c(NCc3ccccc3-n3cccn3)nc(N3CCC(C)(N)CC3)nc12` [Compound 27], for which the IC50 in assay [1] is less than 1 µM; in [2], 0.1 to 1 µM; in [3], less than 0.1 µM; in assay [4] (setting [10]), less than 0.1 µM; in [5] it was less than 1 µM; in [6] it was less than 1 µM. In addition, the IC50 in assay [7] was 0.1 to 1 µM; in assay [8] it was less than 1 µM; in assay [9] it was 1 to 10 µM. Further, the “CDK1/CDK7: Selectivity of CDK7 inhibition over CDK1 inhibition” value in assay [4] is reported as “A (A=greater than 200 fold)”. For the same compound, in assay [4], the “CDK2/CDK7: Selectivity of CDK7 inhibition over CDK2 inhibition” value was “B (B=less than 200 fold, but greater than 20 fold)”. Also, the “CDK5/CDK7: Selectivity of CDK7 inhibition over CDK5 inhibition” value in assay [4] is “B (B=less than 200 fold, but greater than 20 fold)”.
On to `CC(C)c1cnn2c(NCc3ccccc3-c3cc4c(F)cccc4[nH]3)nc(N3CCC(N)CC3)nc12` [Compound 112], for which the IC50 in [1] was less than 1 µM; in assay [2] it was 0.1 to 1 µM; in assay [3], less than 0.1 µM; in [4] (setting [10]), less than 0.1 µM; in assay [5] it was less than 1 µM; in assay [6], less than 1 µM. In addition, the IC50 in [7] was 0.1 to 1 µM; in assay [8], less than 1 µM; in assay [9], less than 1 µM. In assay [4], the “CDK1/CDK7: Selectivity of CDK7 inhibition over CDK1 inhibition” value is “B (B=less than 200 fold, but greater than 20 fold)”. In addition, the “CDK2/CDK7: Selectivity of CDK7 inhibition over CDK2 inhibition” value in [4] is listed as “B (B=less than 200 fold, but greater than 20 fold)”. In addition, the “CDK5/CDK7: Selectivity of CDK7 inhibition over CDK5 inhibition” value in assay [4] was “C (C=less than 20 fold)”.
In the case of `CC(C)c1cnn2c(NCc3ccccc3-c3nc4ccccc4o3)nc(N3CCC(N)CC3)nc12` [Compound 97], the IC50 in assay [1] is less than 1 µM; in assay [2], 0.1 to 1 µM; in assay [3] it was 0.1 to 1 µM; in [4] (setting [10]) it was less than 0.1 µM; in [5] it was less than 1 µM; in assay [6], less than 1 µM. The IC50 in assay [7] is 0.1 to 1 µM; in [8], less than 1 µM; in [9], 1 to 10 µM. Besides, the “CDK1/CDK7: Selectivity of CDK7 inhibition over CDK1 inhibition” value in assay [4] is given as “B (B=less than 200 fold, but greater than 20 fold)”. For the same compound, the “CDK2/CDK7: Selectivity of CDK7 inhibition over CDK2 inhibition” value in assay [4] is listed as “B (B=less than 200 fold, but greater than 20 fold)”. For the same compound, the “CDK5/CDK7: Selectivity of CDK7 inhibition over CDK5 inhibition” value in assay [4] is given as “B (B=less than 200 fold, but greater than 20 fold)”.
Consider `CC(C)c1cnn2c(NCc3ccccc3-c3cnc4ccccc4n3)nc(N3CCC(N)CC3)nc12` [Compound 80], for which the IC50 was less than 1 µM in assay [1]; 0.1 to 1 µM in assay [2]; less than 0.1 µM in [3]; less than 0.1 µM in assay [4] (setting [10]); less than 1 µM in [5]; less than 1 µM in assay [6]. In addition, the IC50 in assay [7] was 0.1 to 1 µM; in assay [8], less than 1 µM; in [9], 1 to 10 µM. In addition, the “CDK1/CDK7: Selectivity of CDK7 inhibition over CDK1 inhibition” value in assay [4] was “A (A=greater than 200 fold)”. Also, the “CDK2/CDK7: Selectivity of CDK7 inhibition over CDK2 inhibition” value in assay [4] is recorded as “B (B=less than 200 fold, but greater than 20 fold)”. Moreover, in assay [4], the “CDK5/CDK7: Selectivity of CDK7 inhibition over CDK5 inhibition” value is “B (B=less than 200 fold, but greater than 20 fold)”.
`CC(C)c1cnn2c(NCc3ccccc3-n3cc4c(n3)CCCC4)nc(N3CCC(N)CC3)nc12` [Compound 109]: the IC50 in assay [1] was less than 1 µM; in [2], 0.1 to 1 µM; in assay [3], 0.1 to 1 µM; in assay [4] (setting [10]) it was less than 0.1 µM; in assay [5] it was less than 1 µM; in assay [6], less than 1 µM. For the same compound, the IC50 in assay [7] was more than 1 µM; in assay [8] it was less than 1 µM; in [9], less than 1 µM. The “CDK1/CDK7: Selectivity of CDK7 inhibition over CDK1 inhibition” value in [4] is given as “A (A=greater than 200 fold)”. Moreover, in assay [4], the “CDK2/CDK7: Selectivity of CDK7 inhibition over CDK2 inhibition” value is given as “A (A=greater than 200 fold)”. The “CDK5/CDK7: Selectivity of CDK7 inhibition over CDK5 inhibition” value in assay [4] is reported as “B (B=less than 200 fold, but greater than 20 fold)”.
On to `CC(C)c1cnn2c(NCc3ccccc3-c3ncc4ccccc4n3)nc(N3CCC(N)CC3)nc12` [Compound 77], for which the IC50 in assay [1] was less than 1 µM; in [2], 0.1 to 1 µM; in assay [3] it was 0.1 to 1 µM; in [4] (setting [10]) it was less than 0.1 µM; in [5], less than 1 µM; in assay [6], less than 1 µM. Besides, the IC50 in assay [7] fell in the range of 0.1 to 1 µM; in [9], 1 to 10 µM. Besides, in assay [4], the “CDK1/CDK7: Selectivity of CDK7 inhibition over CDK1 inhibition” value is recorded as “A (A=greater than 200 fold)”. For the same compound, the “CDK2/CDK7: Selectivity of CDK7 inhibition over CDK2 inhibition” value in assay [4] is recorded as “B (B=less than 200 fold, but greater than 20 fold)”. In addition, the “CDK5/CDK7: Selectivity of CDK7 inhibition over CDK5 inhibition” value in assay [4] was “B (B=less than 200 fold, but greater than 20 fold)”.

By IC50 is commonly meant the concentration needed to halve the response being measured.
